Structures can show the parent of a compound that is named as a salt.

Data on 19 compounds can be found in patent US10583128B2, “Treatment of diseases related to alpha subunits of sodium channels, voltage-gated (SCNxA) with small molecules” (CuRNA, Inc., priority 2011, dated 2020).

Test [1] concerns SCN1A mRNA. The test is described as follows: Upregulation of SCN1A mRNA in adult primary human keratinocytes (real time PCR). Particulars: compound 1 uM, 24-48 h, 18S-normalized vs vehicle (DMSO), average upregulation; for fold induction at 1 µM: Homo sapiens, Keratinocyte, read-out: fold increase in SCN1A mRNA levels, Keratinocytes, Avg. The format is cell-based. The method, then: (§1) Transfer of a small molecule into a host cell or organism and determination of its effect upon RNA or protein up-regulation or down regulation can be assessed by several methods well known in the art. For example, SCN1A fibroblasts and/or keratinocytes or other cell types as desired are selected and grown for the specific assays herein. One day before the experiment cells are plated at the density of approximately 4×10^4/well into 24 well plates in Growth Media and incubated at 37° C. and 5% CO2 overnight. Next day, the media in the 24 well plates is changed to fresh Growth Media (1 ml/well) and the cells are dosed with small compounds. Compound stocks are prepared in DMSO at a concentration of 1 mM. At the time of the experiment 1 mM stock solutions are diluted to the concentration of 1 uM in Growth Media. One in 1000 dilution of DMSO is used for the control wells. After 24-48 h incubation at 37° C. and 5% CO2 the media is removed and RNA is extracted from the cells using SV Total RNA Isolation System from Promega (cat # Z3105) following the manufacturers' instructions. Six hundred nanograms of purified total RNA is added to the reverse transcription reaction performed using SuperScript VILO cDNA Synthesis Kit from Invitrogen (cat #11754-250) as described in the manufacturer's protocol. The cDNA from this reverse transcription reaction is used to monitor gene expression by real time PCR using ABI Taqman Gene Expression Mix (cat #4369510) and primers/probes designed by ABI (assays Hs00374696_ml, Hs00897350_ml or Hs00897341_ml for human SCN1A). The following PCR cycle is used: 50° C. for 2 min, 95° C. for 10 min, 40 cycles of (95° C. for 15 seconds, 60° C. for 1 min) using StepOne Plus Real Time PCR system (Applied Biosystems). The assay for 18S is manufactured by ABI (cat #4319413E). Fold change in gene expression after treatment with compounds is calculated based on the difference in 18S-normalized dCt values between compound- and vehicle-treated samples.
In Example 2 primary human keratinocytes were treated with small compounds at a final concentration of 1 uM.
Adult primary human keratinocytes from PromoCell (Heidelberg, Germany, cat # C-12003) or LifeLine Cell Technology (Frederick, Md., cat # FC-0025) were grown in Growth Media supplied by the manufacturers at 37° C. and 5% CO2. One day before the experiment cells were plated at the density of approximately 4×10^4/well into 24 well plates in Growth Media and incubated at 37° C. and 5% CO2 overnight. Next day, the media in the 24 well plates was changed to fresh Growth Media (1 ml/well) and the cells were dosed with small compounds. All compounds were available from commercial sources.
(§2) Compound stocks were prepared in DMSO at a concentration of 1 mM. At the time of the experiment 1 mM stock solutions were diluted to the concentration of 1 uM in Growth Media. One in 1000 dilution of DMSO was used for the control wells. After 24-48 h incubation at 37° C. and 5% CO2 the media was removed and RNA was extracted from the cells using SV Total RNA Isolation System from Promega (cat # Z3105) following the manufacturers' instructions. Six hundred nanograms of purified total RNA was added to the reverse transcription reaction performed using SuperScript VILO cDNA Synthesis Kit from Invitrogen (cat #11754-250) as described in the manufacturer's protocol. The cDNA from this reverse transcription reaction was used to monitor gene expression by real time PCR using ABI Taqman Gene Expression Mix (cat #4369510) and primers/probes designed by ABI (assays Hs00374696_ml, Hs00897350_ml or Hs00897341_ml for human SCN1A). Results obtained using all three assays were very similar (data not shown). The following PCR cycle was used: 50° C. for 2 min, 95° C. for 10 min, 40 cycles of (95° C. for 15 seconds, 60° C. for 1 min) using StepOne Plus Real Time PCR system (Applied Biosystems). The assay for 18S was manufactured by ABI (cat #4319413E). […]
On the technique in general: Real-time PCR tracks product formation cycle by cycle.

Test [2] deals with SCN1A mRNA. As to the kind of experiment: Upregulation of SCN1A mRNA in primary human skin fibroblasts carrying a Dravet-associated mutation (real time PCR). The format is cell-based. The conditions noted are these: compound 1 uM, 24-48 h, 18S-normalized vs vehicle (DMSO), average upregulation; for fold induction at 1 µM: Homo sapiens, Skin fibroblast, read-out: fold increase in SCN1A mRNA levels, SCN1A fibroblasts, Avg. The method, then:
as §1
In Example 1 primary human skin fibroblasts carrying Dravet-associated SCN1A mutation were treated with small compounds at a final concentration of 1 uM.
as §2, with “Primary human skin fibroblasts carrying Dravet-associated SCN1A mutation introduced into culture by Dr. N. Kenyon (University of Miami) were grown in Growth Media consisting of a-MEM (Gibco, cat: 12561-056)+10% FBS (Mediatech, cat: 35-015 CV)+1% Antimycotic-Antibiotic (Gibco, cat: 15240-062) at 37° C. and 5% CO2. One day before the experiment cells were plated at the density of approximately 4×10^4/well into 24 well plates in Growth Media and incubated at 37° C. and 5% CO2 overnight. Next day, the media in the 24 well plates was changed to fresh Growth Media (I ml/well) and the cells were dosed with small compounds. All compounds were available from commercial sources. Compound” for “Compound”, “shown).” for “shown). The following PCR cycle was used: 50° C. for 2 min, 95° C. for 10 min, 40 cycles of (95° C. for 15 seconds, 60° C. for 1 min) using StepOne Plus Real Time PCR system (Applied Biosystems). The assay for 18S was manufactured by ABI (cat #4319413E).”

Turning to `COC(=O)C1=C(C)NC(C)=C(C(=O)OC2CCCN(Cc3ccccc3)C2)C1c1cccc([N+](=O)[O-])c1` [Benidipine, 5-Omethyl-3O-[(3R)-1-(phenylmethyl)-piperidin-3-yl]2,6-dimethyl-4-(3-nitrophenyl)-1,4-dihydropyridine-3,5-dicarboxylate], the fold induction at 1 µM in test [1] amounted to 1.69; in test [2], 3.01.

In the case of `COc1ccc2[nH]c([S+]([O-])Cc3ncc(C)c(OC)c3C)nc2c1` (centres unmarked) [Omeprazole, 6-methoxy-2-((4-methoxy-3,5-dimethylpyridin-2-yl)methylsulfinyl)-1H-benzo[d]imidazole Mg], the fold induction at 1 µM in test [1] was 2.46; in test [2] it was 2.22.

For `O=c1c2ccccc2[se]n1-c1ccccc1` [Ebselen, 2-Phenyl-1,2-benzoselenazol-3-one], the fold induction at 1 µM in test [1] came to 2.67; in test [2] it was 2.81.

Consider `CCN(CC)C(=O)C1(c2ccccc2)CC1CN` [Milnacipran, 1R(S),2S(R)[-2-(aminomethyl)-N,N-diethyl-1-phenylcyclopropanecarboxamide hydrochloride], for which the fold induction at 1 µM in test [1] was determined as 2.72; in test [2], 4.37.

Consider `CC(C)c1ccc2oc3nc(N)c(C(=O)O)cc3c(=O)c2c1` [Amlexanox, 2-amino-7-isopropyl-5-oxo-5H-chromeno[2,3-b]pyridine-3-carboxylic acid], for which the fold induction at 1 µM is 5.41 in test [1] and 2.01 in test [2].

As for `COc1ccc(-c2oc3c(CC=C(C)C)c(O[C@@H]4O[C@H](CO)[C@@H](O)[C@H](O)[C@H]4O)cc(O)c3c(=O)c2O[C@@H]2O[C@@H](C)[C@H](O)[C@@H](O)[C@H]2O)cc1` [Icariin, 5-hydroxy-2-(4-methoxyphenyl)-8-(3-methylbut-2-enyl)-7-[(2S,3R,4S,5S,6R)-3,4,5-trihydroxy-6-(hydroxymethyl)oxan-2-yl]oxy-3-[(2S,3R,4R,5R,6S)-3,4,5-trihydroxy-6-methyloxan-2-yl]oxychromen-4-one], the fold induction at 1 µM was 2.29 in test [1] and 2.38 in test [2].

Take `C[C@]12Cc3c[nH]nc3C[C@@H]1CC[C@@H]1[C@@H]2CC[C@@]2(C)[C@H]1CC[C@]2(C)O` [Stanozolol, 17β-Hydroxy-17-methyl-5α-androstano[3,2-c]-pyrazole]: the figures for the fold induction at 1 µM in test [1] and in test [2] were 1.76 and 1.75, respectively.

Take `CCOC(=O)C1=C(C)NC(C)=C(C(=O)OC)C1c1cccc([N+](=O)[O-])c1` (racemic) [Nitrendipine, (RS)-ethyl methyl 2,6-dimethyl-4-(3-nitrophenyl)-1,4-dihydropyridine-3,5-dicarboxylate]: in test [2], the fold induction at 1 µM worked out at 2.13.

Consider `CCOc1cc(N)c(Cl)cc1C(=O)NCC1CN(Cc2ccc(F)cc2)CCO1` (centres unmarked) [Mosapride], for which the fold induction at 1 µM in test [1] was 1.47; in test [2], 1.9.

On to `Cc1nc2n(c(=O)c1CCN1CCC(c3noc4cc(F)ccc34)CC1)CCCC2` [Risperidone, 3-[2-[4-(6-flouro-1,2-benzisoxazol-3-yl)-1-piperidinyl]-ethyl]-6,7,8,9-tetrahydro-2-methyl-4H-pyrido[,2-a]pyrimidin-4-one], for which the fold induction at 1 µM in test [1] is 3.02; in test [2], 3.48.

With `CC(N=C(NC#N)Nc1ccncc1)C(C)(C)C` (centres unmarked) [Pinacidil, N-cyano-N′pyridin-4-yl-N″-(1,2,2-trimethylpropyl)guanidine], the fold induction at 1 µM in test [2] came out at 3.48.

For `C[C@H]1CCC[C@H](O)CCCCCc2cc(O)cc(O)c2C(=O)O1` [Zeranol, (3S,7R)-7,14,16-trihydroxy-3-methyl-3,4,5,6,7,8,9,10,11,12-decahydro-1H-2-benzoxacyclotetradecin-1-one], the fold induction at 1 µM came out at 4.51 in test [1] and 2.6 in test [2].

`CCc1nn(CCCN2CCN(c3cccc(Cl)c3)CC2)c(=O)n1CCOc1ccccc1` [Nefazadone, 2-[3-[4-(3-chlorophenyl)-1-piperazinyl]propyl]-5-ethyl-2,4-dihydro-4-(2-phenoxyethyl)-3H-1,2,4-triazol-3-one monohydrochloride]: the fold induction at 1 µM is 4.53 in test [1] and 2.39 in test [2].

As for `COc1ccc(CN2CCN(C(c3ccc(F)cc3)c3ccc(F)cc3)CC2)c(OC)c1OC` [Lomerizine, 1-[bis(4-fluorophenyl)methyl]-4-[2,3,4-trimethoxyphenylmethyl]Dihydrochloride], the fold induction at 1 µM was determined as 3.47 in test [1] and 2.39 in test [2].

With `CN1C(=O)CN=C(c2ccccc2)c2cc([N+](=O)[O-])ccc21` [Nimetazepam, 2-methyl-9-nitro-6-phenyl-2,5-diazabicyclo[5.4.0]undeca-5,8,10,12-tetraen-3-one], the fold induction at 1 µM came to 2.47 in test [1] and 2.03 in test [2].

For `CN[C@H]1CC[C@@H](c2ccc(Cl)c(Cl)c2)c2ccccc21` [Sertraline, (1S,4S)-4-(3,4-dichlorophenyl)-N-methyl-1,2,3,4-tetrahydronaphthalen-1-amine], the fold induction at 1 µM was 5.18 in test [1] and 1.79 in test [2].

As to `CS(=O)(=O)Nc1ccc(Cc2noc(-c3ccc4[nH]cc(CCN)c4c3)n2)cc1` [L-694,247, Methanesulfonamide,N-[4-[[5-[3-(2-aminoethyl)-1H-indol-5-yl]-1,2,4-oxadiazol-3-yl]methyl]phenyl]], in test [1], the “fold increase in SCN1A mRNA levels, Keratinocytes, Avg” value turned out to be 1.68 fold. Besides, the “fold increase in SCN1A mRNA levels, SCN1A fibroblasts, Avg” value in test [2] was found to be 2.20 fold.

`Cc1cccc(Nc2ccncc2S(=O)(=O)NC(=O)NC(C)C)c1` [Torsemide]: the fold induction at 1 µM in test [2] was found to be 3.7.

With `CN1CC(=O)N2[C@H](c3ccc4c(c3)OCO4)c3[nH]c4ccccc4c3C[C@@H]2C1=O` [Tadalafil, (6R-trans)-6-(1,3-benzodioxol-S-yl)-2,3,6,7,12,12a-hexahydro-2-methyl-pyrazino[1′,2′:1,6]pyrido[3,4-b]indole-1,4-dione], the fold induction at 1 µM in test [1] turned out to be 2.79; in test [2], 2.73.
